Data on 4 compounds can be found in article PMC10861852, “Loss of activation by GABA in vertebrate delta ionotropic glutamate receptors” (Proceedings of the National Academy of Sciences of the …, 2024).

For assay [1], the target named is T1, AcaGluD (Acanthaster planci, UniProt A0A8B7XXR5).
T1 sequence (A0A8B7XXR5 24-958): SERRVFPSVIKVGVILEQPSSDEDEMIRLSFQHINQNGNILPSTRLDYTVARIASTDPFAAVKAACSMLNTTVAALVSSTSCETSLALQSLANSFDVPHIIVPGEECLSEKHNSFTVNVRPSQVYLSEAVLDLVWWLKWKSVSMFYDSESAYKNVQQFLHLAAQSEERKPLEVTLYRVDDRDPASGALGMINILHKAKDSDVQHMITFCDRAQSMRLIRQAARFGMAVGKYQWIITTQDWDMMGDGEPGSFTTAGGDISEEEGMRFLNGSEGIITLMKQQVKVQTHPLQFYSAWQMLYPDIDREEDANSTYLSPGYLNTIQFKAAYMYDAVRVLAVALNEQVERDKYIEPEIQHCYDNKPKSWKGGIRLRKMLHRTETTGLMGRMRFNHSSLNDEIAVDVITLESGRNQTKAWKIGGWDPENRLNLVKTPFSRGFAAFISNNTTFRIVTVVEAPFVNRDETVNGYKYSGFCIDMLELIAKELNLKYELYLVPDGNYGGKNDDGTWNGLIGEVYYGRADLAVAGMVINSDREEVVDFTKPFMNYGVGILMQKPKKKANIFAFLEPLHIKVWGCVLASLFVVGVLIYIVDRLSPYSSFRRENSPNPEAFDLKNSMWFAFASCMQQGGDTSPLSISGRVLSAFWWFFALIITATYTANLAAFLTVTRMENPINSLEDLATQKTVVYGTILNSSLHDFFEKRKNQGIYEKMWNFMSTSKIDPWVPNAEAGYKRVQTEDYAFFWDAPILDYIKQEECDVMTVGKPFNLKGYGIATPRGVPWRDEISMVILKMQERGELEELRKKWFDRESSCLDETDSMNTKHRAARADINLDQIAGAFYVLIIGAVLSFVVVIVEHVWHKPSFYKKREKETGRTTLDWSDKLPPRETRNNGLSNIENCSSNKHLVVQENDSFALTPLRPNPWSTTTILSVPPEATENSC
The experiment in a line: Two-electrode voltage clamp, ligand-gated currents in oocytes. Format: cell-based. The note with it: for inhibition of GABA-gated current: coapplied with ~EC30 GABA concentration. (Two-electrode voltage clamp is typically applied to oocytes expressing channels or transporters.)

Assay [2] has as its target T2, WT RatGluD2 (Rattus norvegicus, UniProt Q63226).
T2 construct: expressed in transfected cells; host or cells: Xenopus laevis oocytes injected with mRNA
T2 sequence (Q63226 24-1007): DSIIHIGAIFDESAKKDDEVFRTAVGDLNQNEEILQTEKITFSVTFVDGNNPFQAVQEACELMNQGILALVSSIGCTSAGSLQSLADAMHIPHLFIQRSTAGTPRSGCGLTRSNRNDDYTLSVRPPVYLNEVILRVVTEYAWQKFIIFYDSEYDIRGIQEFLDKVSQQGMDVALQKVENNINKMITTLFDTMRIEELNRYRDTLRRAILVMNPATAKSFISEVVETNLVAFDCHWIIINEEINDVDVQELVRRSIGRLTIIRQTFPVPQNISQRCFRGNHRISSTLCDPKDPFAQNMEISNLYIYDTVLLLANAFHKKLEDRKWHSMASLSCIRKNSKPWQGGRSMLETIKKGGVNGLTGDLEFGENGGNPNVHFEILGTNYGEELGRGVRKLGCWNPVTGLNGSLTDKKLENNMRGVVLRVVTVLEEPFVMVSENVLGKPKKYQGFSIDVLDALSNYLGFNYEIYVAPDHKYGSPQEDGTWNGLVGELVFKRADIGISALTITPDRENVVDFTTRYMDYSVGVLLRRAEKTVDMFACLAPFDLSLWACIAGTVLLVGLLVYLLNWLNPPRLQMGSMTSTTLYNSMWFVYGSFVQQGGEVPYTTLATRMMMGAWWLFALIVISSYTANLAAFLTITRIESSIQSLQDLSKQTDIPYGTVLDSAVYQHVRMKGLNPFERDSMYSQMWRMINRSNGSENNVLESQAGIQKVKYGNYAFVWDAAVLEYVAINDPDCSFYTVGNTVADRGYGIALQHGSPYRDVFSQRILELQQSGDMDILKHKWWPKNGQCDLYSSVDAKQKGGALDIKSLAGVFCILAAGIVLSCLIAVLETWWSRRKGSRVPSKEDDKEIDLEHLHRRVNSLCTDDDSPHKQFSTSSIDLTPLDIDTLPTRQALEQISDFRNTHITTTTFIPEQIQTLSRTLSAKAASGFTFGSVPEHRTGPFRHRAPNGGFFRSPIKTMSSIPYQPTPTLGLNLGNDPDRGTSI
Kind of assay: Two-electrode voltage clamp in oocytes. Format: cell-based. Particulars: n = 4.

Assay [3] addresses T3, RatGluD2^Lc (Rattus norvegicus, UniProt Q63226, A654T).
T3 sequence (Q63226 24-1007 A654T): T2 sequence (Q63226 24-1007) with A631T
The experiment in a line: Two-electrode voltage clamp, inhibition of constitutive current in oocytes. The note with it: each n = 4.
Excerpt: (C) Left panels, example recordings of oocytes expressing A654T lurcher-mutant RatGluD2 (RatGluD2Lc) in response to indicated AMPA iGluR antagonists and D-serine. Dashed line, zero current baseline. Right panel, % inhibition at different oocytes (dots) and resulting means (columns).

Assay [4] concerns the target T4, RatGluD2^5x (Rattus norvegicus, UniProt Q63226, A686S/K694R/N720P/P806D/Y613F).
T4 construct: expressed in transfected cells; host or cells: Xenopus laevis oocytes injected with mRNA
T4 sequence (Q63226 24-1007 Y613F/A686S/K694R/N720P/P806D): T2 sequence (Q63226 24-1007) with Y590F, A663S, K671R, N697P, P783D
The experiment in a line: Two-electrode voltage clamp, responses to ligands in mutant-expressing oocytes. The note with it: ligands 30 mM. In kind it is cell-based. The source says:
(§1) If the 10 mutations discussed above drove the loss of function in vertebrate delta iGluRs, one might expect that the latter could be “reawakened” via active invertebrate delta iGluR-like mutations here. We therefore engineered mutant RatGluD2 iGluRs to contain at these positions the equivalent residues from starfish delta iGluRs. These mutants were RatGluD2^5x, containing Y613F, A686S, K694R, N720P, and P806D substitutions (pink in Fig. 6A), and RatGluD2^9x, additionally containing N763K, D753Q, Q786M, and R787V (cyan in Fig. 6A).
(§2) Fig. 6. AcaGluD-like mutations alter RatGluD2 receptor function. (A) D-serine bound RatGluD2 from X-ray structure PDB:2v3u ([13]). Selected amino acid residues are indicated, colored, shown as sticks, and labeled 5×, 9×, 10×, and/or Lc according to the multiple mutants they were incorporated into. 10× mutant included 10×, 9×, and 5× positions. 9× included 9× and 5×. 5× included only 5×. […] (B–E) Example current responses to different neurotransmitter ligands (30 mM) and to pore blocker pentamidine (Pent, 100 μM) in oocytes expressing indicated RatGluD2 mutants. The dashed line indicates zero current baseline. (F) Individual (dots) and mean (columns) responses to ligands in oocytes expressing indicated RatGluD2 mutants (n = 4 to 5).

Assay [5] addresses T5, RatGluD2^9x (Rattus norvegicus, UniProt Q63226, A686S/D753Q/K694R/N720P/N763K/P806D/Q786M/R787V/Y613F).
T5 construct: expressed in transfected cells; host or cells: Xenopus laevis oocytes injected with mRNA
T5 sequence (Q63226 24-1007 Y613F/A686S/K694R/N720P/D753Q/N763K/Q786M/R787V/P806D): T2 sequence (Q63226 24-1007) with Y590F, A663S, K671R, N697P, D730Q, N740K, Q763M, R764V, P783D
The assay is described as above. In kind it is cell-based. The note with it: ligands 30 mM.
Excerpt: as §1, §2

Molecules are shown by their SMILES. Residue numbers refer to the chain shown, from its start.

A word on the EC50: it is the concentration that produces a half-maximal response. A lower EC50 goes with an effect from little substance.

As for `N#Cc1cc2[nH]c(=O)c(=O)[nH]c2cc1[N+](=O)[O-]` [CNQX], the “currents elicited when applied alone” value in assay [1] (100 μM, applied alone) is on record as “elicited no currents”. Moreover, in assay [1] (100 μM), the “inhibition of GABA-gated current” value was 81 ± 4%. Besides, the “enhancement of glutamate-gated currents” value in assay [1] (100 μM, n = 5) is given as “no effect”. The “effect on oocytes expressing WT RatGluD2” value in assay [2] is “no effect”. The “inhibition of constitutive currents” value in assay [3] is listed as 10 ± 0.2%.
`O=C(O)c1cc(=O)c2c(Cl)cc(Cl)cc2[nH]1` [5,7-dichlorokynurenic acid]: the “inhibition of GABA-gated current” value in assay [1] (100 μM) stood at 11 ± 5%.
In assay [1] (0 Ca2+, n = 4), `N[C@@H](CCC(=O)O)C(=O)O` [glutamate] displayed an EC50 of about 30 mM. Besides, the results for the “maximum ligand-gated current amplitude” value in assay [1] (in the presence of 1.8 mM Ca2+) and in assay [1] (nominally Ca2+-free solutions) were 5.8 ± 0.6 µA and 0.28 ± 0.02 µA, respectively. Moreover, the “current response to ligand” value in assay [4] and in assay [5] was “no responses” throughout.
Regarding `C[C@@H](NCc1cc(Br)cc2[nH]c(=O)c(=O)[nH]c12)P(=O)(O)O` [CGP-78608], in assay [1] (100 μM), the “inhibition of GABA-gated current” value came to 9 ± 3%.
